Values of other authors, collected in patent publication US20030125233A1, “Use of urokinase inhibitors for the treatment and/or prevention of pulmonary hypertension and/or cardiac remodelling” (priority 2000, published 2003).

Columns and labels:
[1] = test system: tumor metastasis; conditions: Kellen et al. 1988
[2] = test system: angiogenesis/capillary network formation; conditions: Alliegro et al. 1991

For `N=C(N)NC(=O)c1nc(Cl)c(N)nc1N` [amiloride], the “tumor metastasis in vivo” value [1] is listed as “inhibit” and the “angiogenesis/capillary network formation in vitro” value [2] is listed as “inhibit”.
